Assay [1] relates to E. coli SASX38 strain having pCR-RC with tobacco resistant type protoporphyrinogen oxidase gene. Kind of assay: Growth inhibition of E. coli SASX38 (liquid culture with shaking). It counts as cell-based, Nicotiana tabacum. The settings on record: tobacco. On the procedure: (§1) The E. coli SASX38 strain containing either of the above-described two kinds of plasmid was cultured with shaking in LB liquid medium containing 50 μg/ml of ampicillin at 28° C. for overnight.

In assay [2] the target is T1, E. coli SASX38 strain having pBAtPX-C with Arabidopsis thaliana wild type protoporphyrinogen oxidase gene (Arabidopsis thaliana, UniProt P55826).
T1 construct: expressed in transfected cells; host or cells: E. coli SASX38 (hemG-deficient) carrying pBAtPX-C (pBluescript SK(-))
T1 sequence (P55826 35-537): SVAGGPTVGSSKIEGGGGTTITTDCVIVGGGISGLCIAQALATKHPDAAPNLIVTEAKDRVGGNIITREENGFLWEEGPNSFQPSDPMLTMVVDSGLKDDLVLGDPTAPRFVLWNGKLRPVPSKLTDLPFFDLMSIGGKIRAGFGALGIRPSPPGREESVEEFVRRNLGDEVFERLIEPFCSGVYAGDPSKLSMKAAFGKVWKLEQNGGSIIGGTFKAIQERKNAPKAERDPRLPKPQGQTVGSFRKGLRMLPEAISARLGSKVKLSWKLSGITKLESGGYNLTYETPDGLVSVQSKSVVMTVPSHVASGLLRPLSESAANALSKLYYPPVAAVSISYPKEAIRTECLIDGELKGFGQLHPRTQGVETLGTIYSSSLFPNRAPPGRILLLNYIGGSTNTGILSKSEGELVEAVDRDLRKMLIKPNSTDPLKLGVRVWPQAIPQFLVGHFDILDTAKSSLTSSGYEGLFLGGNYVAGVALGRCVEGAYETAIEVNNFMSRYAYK
The assay is described as above. Type of assay: cell-based. Conditions: Arabidopsis thaliana wild type (pBAtPX-C); read-out: IC50, growth of E. coli. On the procedure:
as §1

Assay [3] has as its target T2, E. coli SASX38 strain having pCR-HC with tobacco wild type protoporphyrinogen oxidase cDNA (Nicotiana tabacum, UniProt O24163).
T2 construct: expressed in transfected cells; host or cells: E. coli SASX38 (hemG-deficient) carrying pCR-HC
T2 sequence (O24163 51-548): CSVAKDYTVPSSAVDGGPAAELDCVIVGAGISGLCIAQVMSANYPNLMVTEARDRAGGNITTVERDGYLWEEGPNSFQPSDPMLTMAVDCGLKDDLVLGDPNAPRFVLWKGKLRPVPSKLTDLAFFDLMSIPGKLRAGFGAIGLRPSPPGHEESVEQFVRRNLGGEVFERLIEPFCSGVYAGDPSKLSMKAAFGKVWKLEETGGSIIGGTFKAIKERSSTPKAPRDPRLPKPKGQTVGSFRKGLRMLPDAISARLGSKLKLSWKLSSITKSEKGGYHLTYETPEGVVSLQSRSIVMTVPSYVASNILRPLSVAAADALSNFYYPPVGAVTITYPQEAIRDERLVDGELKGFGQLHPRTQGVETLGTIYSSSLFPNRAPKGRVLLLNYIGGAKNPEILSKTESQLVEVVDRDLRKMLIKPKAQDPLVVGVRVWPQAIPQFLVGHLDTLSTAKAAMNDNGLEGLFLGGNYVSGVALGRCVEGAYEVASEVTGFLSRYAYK
Described as above. Conditions: E. coli containing pCR-HC; read-out: IC50, growth of E. coli inhibited by 50%. Type of assay: cell-based. On the procedure: as §1

For assay [4], the target named is T3, E. coli SASX38 strain having pCR-RC with tobacco resistant type protoporphyrinogen oxidase gene (Nicotiana tabacum, UniProt O24163, A174P/A191P/A231V/T382S).
T3 construct: expressed in transfected cells; host or cells: E. coli SASX38 (hemG-deficient) carrying pCR-RC
Described as above. It counts as cell-based. On the procedure:
as §1

The subject of assay [5] is transformed tobacco plant, Tobacco wild type (pBI-NtPX-HC). The experiment in a line: Leaf disk method, bleaching. It counts as cell-based, N. Tabacum var. SR1. On the procedure:
(§2) The A. tumefacience having the binary vector which had been stored at −80° C. was cultured with shaking at 27° C. for 24 hours in 523 liquid medium (1% sucrose, 0.8% Bacto-tryptone, 0.4% Bacto-yeast extract, 0.2% K2HPO4, 0.03% MgSO4.7H2O) containing kanamycin. A disk (9 mm diameter) of a tobacco (N. Tabacum var. SR1) leaf which had been surface sterilized was immersed for one minute into the culture of the A. tumefacience, and then the culture liquid attached thereon was removed with a sterilized paper towel. The leaf disk was transferred into MS agar medium containing 0.6% agar in which 2 ppm NAA and 0.2 ppm BA were added, with the reverse side of leaf being made upside, and incubated at 25° C. for 48 hours. The leaf disk was transferred into MS liquid medium containing 500 ppm carbenicillin, 200 ppm claforan, 2 ppm NAA and 0.2 ppm BA and cultured with shaking at 27° C. for 48-72 hours to remove A. tumefacience. The leaf disk was transferred into MS liquid medium containing 0.6% agar, 100 ppm of carbenycillin, 200 ppm of claforan and 150 ppm of kanamycin, 2 ppm NAA and 0.2 ppm BA and incubated at 27° C. for 2-3 weeks and formation of shoot was induced. The shoot was transferred into medium for root development (½ MS, 0.02 ppm IBA, 1.5% sucrose, 0.2% gellan gum) and development of root was introduced. The young plant thus obtained was transferred into culture soil, and was grown in a green house.
(§3) From the transformed plant with which the confirmation of introduction of gene was finished, and non-transformed plant used as a control, a leaf almost the same position of the leaf was picked and 9 mm diameter leaf disks were prepared, and floated on a dish in which 0, 125, 250, 1,250, 2,500, 5,000, 12,500 nM of compound A aqueous solution were contained. After incubation at 27° C. for one week under continuous strong light, the bleaching of the leaf disks was observed, and the permissive concentration to compound A was calculated. As a result (Table 7), in case that the tolerant type of protoporphirinogen oxidase cDNA from tobacco was introduced by pBI-NtPX-RC, more than 100 times of tolerance was observed comparing to the control non-transformed plant. However, in case that rsistant type cDNA from Arabidopsis thaliana was introduced by pBI-AtPX-RC, 4 times of resistance was observed comparing to the control, and in case that the wild type cDNA was introduced, high resistance was not observed in each case.

For assay [6], the system named is transformed tobacco plant, Arabidopsis thaliana wild type (pBI-AtPX-HC). Kind of assay: Leaf disk method, bleaching. It counts as cell-based, N. Tabacum var. SR1. On the procedure:
as §2, §3

Assay [7] deals with transformed tobacco plant, Arabidopsis thaliana resistant type (pBI-AtPX-RC). Kind of assay: Leaf disk method, bleaching. Type of assay: cell-based, N. Tabacum var. SR1. On the procedure:
as §2, §3

Assay [8] has as its system transformed tobacco plant, Tobacco resistant type (pBI-NtPX-RC). Kind of assay: Leaf disk method, bleaching. It counts as cell-based, N. Tabacum var. SR1. On the procedure:
as §2, §3

T3 sequence (O24163 whole entry A174P/A191P/A231V/T382S): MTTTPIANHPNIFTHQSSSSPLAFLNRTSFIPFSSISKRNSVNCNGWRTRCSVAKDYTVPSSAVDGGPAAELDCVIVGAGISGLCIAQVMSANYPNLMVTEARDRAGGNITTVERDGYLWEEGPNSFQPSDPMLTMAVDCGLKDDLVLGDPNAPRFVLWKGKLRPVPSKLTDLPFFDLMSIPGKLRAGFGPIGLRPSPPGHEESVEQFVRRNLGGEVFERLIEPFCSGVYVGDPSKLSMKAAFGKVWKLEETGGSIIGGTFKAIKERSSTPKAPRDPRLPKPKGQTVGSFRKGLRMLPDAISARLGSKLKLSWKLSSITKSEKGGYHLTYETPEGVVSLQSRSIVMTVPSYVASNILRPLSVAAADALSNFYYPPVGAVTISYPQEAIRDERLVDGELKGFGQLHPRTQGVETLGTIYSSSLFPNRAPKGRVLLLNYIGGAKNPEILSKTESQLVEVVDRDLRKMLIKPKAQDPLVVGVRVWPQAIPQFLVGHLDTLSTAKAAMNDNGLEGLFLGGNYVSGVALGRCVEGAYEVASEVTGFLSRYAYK

The IC50 is the concentration that inhibits the measured activity by half. Turning to `CCOC(=O)COc1cc(-c2nn(C)c(OC(F)F)c2Cl)c(F)cc1Cl` [Compound A, ethyl 2-chloro-5-(4-chloro-5-difluoromethoxy-1-methyl-1H-pyrazol-3-yl)-4-fluorophenoxyacetate], the “R/S ratio (IC50 value of a resistant type/IC50 value in a wild type)” value in assay [1] was “over 4,000”. The results for the concentration for half-maximal inhibition (IC50) in assay [2], in assay [3] and in assay [4] were around 5 nM, around 2.5 nM and at least 10000 nM, respectively. The “Permission conc. to compound A” value is 500 nM in assay [5], 250 nM in assay [6] (Arabidopsis thaliana Wild type (pBI-AtPX-HC)), 500 nM in assay [7] (Arabidopsis thaliana resistant type (pBI-AtPX-RC)) and >12,500 nM in assay [8]. The Resistance in assay [5] (vs non-transformed) came out at 4 X; in assay [6] (Arabidopsis thaliana Wild type, vs non-transformed), 2 X; in assay [7] (Arabidopsis thaliana resistant type, vs non-transformed), 4 X.

The values above are taken from patent US6905852B1, “Herbicide-resistant protoporphyrinogen oxidase isolated from Nicotiana tabacum” (Nihon Nohyaku Co., Ltd., priority 1997, dated 2005).
